The text below walks through data of PubChem BioAssay (NCI).

Molecules are shown by their SMILES.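 Growth conditions: 96-well plates. Treatment: test compound, 48 hours, 5 concentrations. Analysis: linear interpolation between bracketing concentrations; unreached endpoints set to highest concentration. TGI denotes the concentration required for complete inhibition of growth.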

Common to all, as to assay: NCI-60 cell line screen, 48 h
The subject of test [1] is 786-0 renal.
In test [2] the test system is A549 NSCLC.
The test system of test [3] is ACHN renal.
Test [4] concerns DU-145 prostate.
In test [5] the test system is HCC-2998 colon.
Test [6] deals with HCT-116 colon.
For test [7], the system named is HOP-62 NSCLC.
Test [8] deals with HS 578T breast.
Test [9] deals with HT29 colon.
The subject of test [10] is M14 melanoma.
The test system of test [11] is NCI-H226 lung.
Test [12] deals with NCI-H460 lung.
Test [13] has as its system NCI/ADR-RES ovarian.
The subject of test [14] is SF-539 CNS.
Test [15] has as its system SK-OV-3 ovarian.
The test system of test [16] is SNB-19 CNS.
The subject of test [17] is SR leukemia.
The subject of test [18] is UACC-62 melanoma.
The test system of test [19] is UO-31 renal.

With `COC(=O)/C=C1/OC(c2ccccc2)=CC1=O`, the TGI was 27.9 µM in test [1]; above 82.9 µM in test [2]; above 56 µM in [3]; 19.4 µM in test [4]; 33.5 µM in test [5]; 33.2 µM in [6]. Besides, the TGI amounted to 44.7 µM in test [7]; 65.9 µM in test [8]; 39 µM in test [9]; 51.5 µM in test [10]; 67.3 µM in test [11]; 43.5 µM in test [12]. The TGI is 58.7 µM in test [13]; 39.8 µM in [14]; above 94.4 µM in test [15]; 32 µM in test [16]; above 60.8 µM in [17]; 40 µM in test [18]. Moreover, the TGI in [19] came out at 31.7 µM.

For the compound `O=C(CCl)Nc1ccc(-c2nc3ccccc3s2)cc1`, the TGI in [1] worked out at 4.62 µM; in test [2], 21.8 µM; in test [3], 13.8 µM; in test [4], 38 µM; in test [5], 5.91 µM; in test [6], 5.81 µM. Also, the TGI in test [7] worked out at 12.3 µM; in test [8], 20.1 µM; in [9], 5.57 µM; in test [10] it was 4.98 µM; in test [11], 5.11 µM; in test [12] it was 7.46 µM. The TGI was above 56.2 µM in test [13]; 8.16 µM in test [14]; 17.5 µM in [15]; 9.99 µM in test [16]; 5.49 µM in [17]; 8.71 µM in test [18]. The TGI in test [19] was determined as 20.6 µM.

Consider `Nc1nc(Cl)c(N)c(NCC2(CO)CC(O)C2)n1` (stereo not given), for which the TGI in test [1], in test [2], in test [3], in [4], in test [5] and in test [6] was above 100 µM throughout. The TGI in [7], in test [8], in [9], in [10], in test [11] and in test [12] was above 100 µM each time. For the same compound, the TGI in test [13], in test [14], in [15], in [16], in test [17] and in test [18] was above 100 µM each time. Further, the TGI in test [19] is above 100 µM.

With `CCOP(=O)(OCC)OC1CC(n2cnc3c(N(CC)CC)ncnc32)OC1CO[Si](C)(C)C(C)(C)C` (stereo not given), the TGI turned out to be 30 µM in test [1]; 29.8 µM in test [2]; 28.8 µM in test [3]; 28.8 µM in test [4]; 43.8 µM in [5]; 30.6 µM in test [6]. Besides, the TGI in test [7] came to 34 µM; in [8], 77.1 µM; in test [9], 35 µM; in [10] it was 33.1 µM; in test [11], 39.3 µM; in test [12] it was 32 µM. Moreover, the TGI in test [13] was 51.8 µM; in test [14], 33.8 µM; in test [15], 31.6 µM; in [16], 33.7 µM; in test [17], above 100 µM; in test [18], 28.2 µM. The TGI in test [19] is 35.4 µM.

`Nc1nc(SCC(=O)c2ccccc2)nc2nc3c(c(-c4ccccc4)c12)CCCC3`: the TGI in test [1] is 56.1 µM; in test [2], above 100 µM; in test [3], above 100 µM; in [4], above 100 µM; in [5] it was above 100 µM; in test [6] it was above 100 µM. Moreover, the TGI in test [7] was above 100 µM; in test [8] it was 64 µM; in test [9], above 100 µM; in test [10] it was above 100 µM; in test [11] it was 62.7 µM; in test [12], above 100 µM. The TGI in test [13] is above 100 µM; in test [14] it was above 100 µM; in test [15], 76.8 µM; in test [16], above 100 µM; in test [17], above 100 µM; in [18], above 100 µM. This compound also showed a TGI in [19] above 100 µM.

Turning to `CCOC(=O)c1cc(NC(=O)c2ccccc2)c(=O)n2c(cc3c(Cl)cccc32)c1O`, the TGI in [1], in test [2], in test [3], in test [4], in test [5] and in test [6] was above 100 µM in each case. Besides, the TGI in test [7], in test [8], in test [9], in test [10], in test [11] and in test [12] was above 100 µM each time. The TGI in test [13], in test [14], in test [15], in test [16], in [17] and in test [18] was above 100 µM in each case. The compound further displayed a TGI in [19] above 100 µM.

`C=CCSC1=N/C(=C\c2ccco2)C(=O)N1CC=C`: the TGI in [1], in test [2], in test [3], in test [4], in test [5] and in [6] was above 100 µM in each case. The TGI in test [7], in test [8], in test [9], in [10], in [11] and in test [12] was above 100 µM throughout. Besides, the TGI in test [13], in test [14], in test [15], in [16], in test [17] and in [18] was above 100 µM in each case. The compound further returned a TGI in test [19] above 100 µM.

`ClCc1nc2cc(Cl)ccc2o1`: the TGI in [1] came out at 3.34 µM; in test [2], 42.2 µM; in [3], 3.33 µM; in [4] it was 14.1 µM; in test [5], 5.9 µM; in test [6] it was 20.4 µM. In addition, the TGI was 8.28 µM in test [7]; above 61.5 µM in [8]; 6.5 µM in [9]; 17.4 µM in [10]; 42.9 µM in [11]; 31.6 µM in test [12]. The TGI in test [13] was 98.4 µM; in test [14], 17.8 µM; in test [15], 28.9 µM; in test [16] it was 21.5 µM; in test [17], above 37 µM; in test [18], 23.1 µM. The compound further gave a TGI in [19] of 2.54 µM.

As to `O=Cc1cc(O)ccc1Br`, the TGI in test [1] is above 78.3 µM; in test [2] it was above 100 µM; in test [3], 60 µM; in test [4], above 100 µM; in test [5], 30.1 µM; in test [6] it was 47.8 µM. The TGI in test [7] was above 96.2 µM; in test [8] it was above 100 µM; in [9], 67.5 µM; in [10], above 92.2 µM; in test [11] it was above 91.7 µM; in test [12], above 100 µM. For the same compound, the TGI is above 76.2 µM in test [13]; 60.5 µM in [14]; above 100 µM in test [15]; above 100 µM in test [16]; 17.3 µM in [17]; 50.4 µM in test [18]. Also, the TGI in test [19] is above 81 µM.

On to `N#Cc1c(-c2ccccc2)cc(Nc2ccc(F)cc2)n2c1nc1ccccc12`, for which the TGI in test [1] is 10 µM; in test [2] it was above 100 µM; in [3], 10.6 µM; in test [4], above 100 µM; in test [5], above 100 µM; in test [6], 6.06 µM. Moreover, the TGI in test [7] is 40.8 µM; in test [8] it was 4.68 µM; in test [9] it was 6.43 µM; in test [10], above 100 µM; in test [11] it was above 24 µM; in [12], above 100 µM. Moreover, the TGI is 13 µM in test [13]; above 22.7 µM in test [14]; 8.71 µM in test [15]; above 100 µM in test [16]; above 100 µM in [17]; 14.8 µM in test [18]. The compound further gave a TGI in test [19] of 6.66 µM.

As for `O=C(O)c1ccccc1/C=C1\Cc2ccc3c(c2C1=O)CCCC3`, the TGI in [1] is above 100 µM; in test [2], above 100 µM; in [3], above 100 µM; in [4], above 100 µM; in test [5], 85.1 µM; in test [6], 80.4 µM. Also, the TGI in test [7] is above 100 µM; in test [8] it was 81.2 µM; in test [9], above 100 µM; in test [10], 81.1 µM; in test [11] it was 82.7 µM; in [12], above 100 µM. Besides, the TGI is above 100 µM in test [13]; 81.6 µM in test [14]; above 100 µM in [15]; above 100 µM in test [16]; 61 µM in test [17]; 46.5 µM in test [18]. Besides, the TGI in [19] was above 100 µM.

Turning to `c1ccc(NC2(c3nnnn3C3CCCCC3)CCNCC2)cc1`, the TGI in [1] was 28.6 µM; in [2] it was above 100 µM; in test [3], 52.6 µM; in test [4] it was above 100 µM; in [5], 27.3 µM; in [6] it was 28.5 µM. For the same compound, the TGI in [7] was 31.9 µM; in test [8], 32.2 µM; in [9] it was 35.8 µM; in test [10], 35.8 µM; in test [11], 62.3 µM; in test [12], 31.7 µM. The TGI was above 100 µM in test [13]; 30 µM in test [14]; 83.4 µM in [15]; 42.5 µM in test [16]; 36.1 µM in test [17]; 38.5 µM in [18]. In test [19], this compound came in with a TGI of 27.7 µM.

For the compound `CSC(=S)Nc1cc(C)ccn1`, the TGI in [1], in test [2], in test [3], in test [4], in test [5] and in test [6] was above 100 µM in each case. For the same compound, the TGI in [7], in test [8], in test [9], in test [10], in test [11] and in test [12] was above 100 µM in each case. In addition, the TGI in test [13], in [14], in [15], in [16], in test [17] and in test [18] was above 100 µM each time. This compound came in with a TGI in test [19] above 100 µM.

Regarding `c1ncc(C23C4C5C6C4C2C6C53)[nH]1` (stereo not given), the TGI in test [1], in test [2], in test [3], in test [4], in test [5] and in test [6] was above 100 µM in each case. In addition, the TGI in [7], in [8], in test [9], in [10], in test [11] and in test [12] was above 100 µM in each case. The TGI in test [13], in test [14], in test [15], in [16], in test [17] and in test [18] was above 100 µM each time. For the same compound, in test [19], the TGI was above 100 µM.

Take `O=C(N/N=C1\CCc2ccccc21)N/N=C1\CCc2ccccc21`: the TGI in test [1], in test [2], in test [3], in [4], in test [5] and in test [6] was above 100 µM each time. The TGI in test [7] is above 100 µM; in test [8], above 100 µM; in [9] it was above 100 µM; in test [10], 26.3 µM; in test [11], above 100 µM; in test [12], above 100 µM. Further, the TGI in test [13], in test [14], in [15], in test [16], in test [17] and in test [18] was above 100 µM in each case. In [19], this compound had a TGI above 100 µM.
